Measurements from article PMC9137581, “Identification of a Novel Class of Anti-Melanogenic Compounds, (Z)-5-(Substituted benzylidene)-3-phenyl-2-thioxothiazolidin-4-one Derivatives, and Their Reactive Oxygen Species Scavenging Activities” (Antioxidants, 2022).

Legend:
B16F10 cells = assay: Melanin content assay in α-MSH plus IBMX-stimulated cells; assay type: cell-based, murine; details: for reduction of α-MSH plus IBMX-induced increase in melanin content: 48 h, B16F10 cells; for effect on melanin content compared with kojic acid: analog at 5 µM
Method: Briefly, B16F10 cells were seeded at a density of 1 × 10^5 cells per well in 6-well plates and allowed to adhere to the well bases under the same conditions that were used for cell culturing. […] In order to determine the melanin contents, the B16F10 cells that were exposed to α-MSH and IBMX for 48 h were rinsed with PBS twice and incubated in 200 µL of 1 N NaOH solution containing 10% dimethyl sulfoxide (DMSO) for 1 h at 60 °C. The cell lysates were transferred to a 96-well plate and the absorbances at 405 nm were measured using a microplate reader (VersaMax™, Molecular Devices, Sunnyvale, CA, USA). These experiments were performed individually in triplicate. B16F10 cells were seeded in 6-well culture plates and pretreated with analogs 1, 3, and 6 at concentrations of 0, 5, 10, or 20 µM and with analog 2 at 0, 2.5, 5, or 10 µM for 1 h. α-Melanocyte-stimulating hormone (α-MSH; 1 µM) and 3-isobutyl-1-methylxanthine (IBMX; 200 µM) were added sequentially in order to enhance melanin production. After incubation for 48 h at 37 °C, the melanin contents were assessed by measuring the well optical densities at 405 nm using a microplate reader. Kojic acid (10 or 20 µM) was used as a positive control.

[1] = ABTS free radical scavenging activity assay; details: 100 µM, 2 min in the dark
Method: ABTS free radical scavenging activity was used to evaluate the antioxidant activities of analogs 1–13, as previously described. […] This ABTS free radical solution was then diluted with absolute methanol to an absorbance of 0.70 ± 0.02 at 734 nm. Aliquots (10 µL) of the test samples (10% DMSO + 90% EtOH) were added at a final concentration of 100 µM to 90 µL of the diluted ABTS free radical solution and incubated for 2 min in the dark at room temperature. Absorbances were then measured at 734 nm using a VersaMax™ microplate reader (Molecular Devices, Sunnyvale, CA, USA). The ABTS free radical scavenging activities of the test analogs were calculated using the following formula:Scavenging activity (%) = (Ac − As) × 100/Ac where Ac is the optical density of the non-treated control and As is the optical density of the tested material.
The effects of analogs 1–13 on ABTS (2,2′-azino-bis(3-ethylbenzothiazoline-6-sulfonic acid)) free radical scavenging activity were investigated using trolox as a positive reference control. The concentrations of the analogs and trolox in the test samples were 100 µM. The free radical scavenging activities were assessed by measuring the optical densities at 734 nm after standing in the dark for 2 min. […] Analogs 7–10, with no hydroxyl groups on the β-phenyl ring, had weak ABTS and DPPH radical scavenging activities.

[2] = molecular target: T1, cellular tyrosinase in B16F10 cells (Mus musculus, UniProt P11344); assay: Cellular tyrosinase activity (L-DOPA oxidation in lysates); assay type: cell-based, murine; details: for inhibition of α-MSH plus IBMX-induced cellular tyrosinase activity compared with kojic acid: analog at 20 µM
T1 construct: endogenous in cells; host or cells: B16F10 murine melanoma cells (ATCC), stimulated with α-MSH and IBMX
T1 sequence (P11344 19-533): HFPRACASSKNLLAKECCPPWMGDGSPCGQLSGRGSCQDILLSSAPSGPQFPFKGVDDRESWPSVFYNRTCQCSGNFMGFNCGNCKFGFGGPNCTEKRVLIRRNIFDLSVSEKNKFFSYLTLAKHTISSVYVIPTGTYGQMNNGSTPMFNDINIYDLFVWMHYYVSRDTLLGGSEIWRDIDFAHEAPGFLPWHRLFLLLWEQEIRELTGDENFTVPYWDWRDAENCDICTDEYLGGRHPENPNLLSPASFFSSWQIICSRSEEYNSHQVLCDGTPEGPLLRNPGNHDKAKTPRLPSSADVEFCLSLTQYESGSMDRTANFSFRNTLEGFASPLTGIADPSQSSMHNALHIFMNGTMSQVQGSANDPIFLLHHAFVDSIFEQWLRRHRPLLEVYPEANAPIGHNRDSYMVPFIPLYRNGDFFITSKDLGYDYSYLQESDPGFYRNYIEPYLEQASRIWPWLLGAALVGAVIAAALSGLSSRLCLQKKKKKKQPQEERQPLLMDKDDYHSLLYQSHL
Method: The cellular tyrosinase activity was examined by assessing the oxidation rate of L-DOPA, as was previously described, with a slight modification. In brief, B16F10 cells were seeded at a density of 1 × 10^5 cells/well in a 6-well plate and allowed to adhere to the well bases using the same conditions that were used for cell culturing. […] After incubation for 48 h under the same conditions that were used for cell culturing, the cells were rinsed twice with PBS and then exposed to 100 µL of a lysis buffer solution (90 µL of 50 mM phosphate buffer in pH 6.5, 5 µL of 2 mM PMSF, and 5 µL of 20% Triton X-100) and held for 30 min at −80 °C. After defrosting, the cell lysates were centrifuged at 12,000 rpm for 30 min at 4 °C. Then, 10 mM L-DOPA (20 µL) was mixed with the supernatants (80 µL) of the lysates in a 96-well plate. The absorbances of these mixtures were measured at 492 nm every 10 min for 1 h at 37 °C using a microplate reader (VersaMax™, Molecular Devices, Sunnyvale, CA, USA). All of these experiments were conducted individually in triplicate. […] Briefly, B16F10 cells were seeded in 6-well culture plates and pretreated with four different concentrations (0, 5, 10, or 20 µM) of each of the four analogs for 1 h, and then the cells were co-stimulated with α-MSH and IBMX for 48 h at 37 °C so as to increase their cellular tyrosinase activity. Their optical densities (ODs) were then measured using a microplate reader at 492 nm in order to quantify the dopachrome production. The inhibitory effect of each analog on cellular tyrosinase activity was evaluated using these ODs. Kojic acid (20 µM) was used as a positive control.

Compound	reduction of α-MSH plus IBMX-induced increase in melanin content (B16F10 cells; 20 µM) [%]	effect on melanin content compared with kojic acid (B16F10 cells)	ABTS free radical scavenging activity [1] [%]	inhibition of α-MSH plus IBMX-induced cellular tyrosinase activity compared with kojic acid [2]	melanin suppression relative to kojic acid at 10 µM (B16F10 cells; 10 µM) [fold]	reduction of α-MSH plus IBMX-induced increase in melanin content (B16F10 cells; 10 µM) [%]	suppression of α-MSH plus IBMX-induced melanogenesis compared with kojic acid (B16F10 cells; analog at 2.5 µM)	cellular tyrosinase activity as percentage of non-treated control ([2]; 10 µM, α-MSH plus IBMX co-stimulated) [%]	inhibition of cellular tyrosinase activity compared with kojic acid ([2]; analog at 5 µM)	ABTS free radical scavenging activity (in words) [1]
O=C1/C(=C/c2ccc(O)cc2O)SC(=S)N1c1ccccc1 [Analog 3, (Z)-5-(2,4-Dihydroxybenzylidene)-3-phenyl-2-thioxothiazolidin-4-one]	61.3	as effective as kojic acid at 20 µM	82.0	more than kojic acid at 20 µM						
O=C1/C(=C/c2ccc(O)c(O)c2)SC(=S)N1c1ccccc1 [Analog 2, (Z)-5-(3,4-Dihydroxybenzylidene)-3-phenyl-2-thioxothiazolidin-4-one]			96.9		4.1	89.6	as effectively as kojic acid at 10 µM	< 100	significantly inhibited tyrosinase activity more than kojic acid did at 20 µM	
COc1ccc(/C=C2\SC(=S)N(c3ccccc3)C2=O)cc1O [Analog 6, (Z)-5-(3-Hydroxy-4-methoxybenzylidene)-3-phenyl-2-thioxothiazolidin-4-one]	50.9	as effective as kojic acid at 20 µM		more than kojic acid at 20 µM						
O=C1/C(=C/c2ccc(O)cc2)SC(=S)N1c1ccccc1 [Analog 1, (Z)-5-(4-Hydroxybenzylidene)-3-phenyl-2-thioxothiazolidin-4-one]	56.3	as effective as kojic acid at 20 µM		more than kojic acid at 20 µM						weak
